Laboratory results as given in US20250290117A1, “MOLECULAR PHENOTYPIC ANTIMICROBIAL SUSCEPTIBILITY TESTING” (priority 2024, published 2025).

Key:
Escherichia coli [1] = assay: Molecular phenotypic antimicrobial susceptibility test (extraction or DNA purification prior to PCR); assay type: cell-based
Description: (§1) Detection of Molecular Phenotypic Antimicrobial Susceptibility. Disclosed herein are the methods for the detection of phenotypic antimicrobial susceptibility via molecular methods. The present invention describes how a specimen 100 with a known microbial load is incubated and then exposed to a panel of antimicrobial agents to determine sensitivity (prevention of growth) or resistance (allowance of growth) to the specific antimicrobial agents tested utilizing molecular methods.
(§2) Sample Collection. Specimens 100 are collected from patients using sterile collection processes that are employed in routine clinical care. Specimens are transported to the testing facility in boric acid preservative.
Preparation of the Specimens for Testing. […] The process for pathogen isolation includes steps of harvesting the pathogen (e.g., via centrifugation), isolating pathogen DNA via a DNA isolation and/or purification kit, and performing PCR on the pathogen DNA via PCR components (e.g., primers, enzymes, buffers) as would be known to the skilled artisan. […] This aliquot is used for antimicrobial susceptibility testing if indicated based on the pathogen detection results. […] Specimens 100 with lower pathogen loads could also be utilized in the antibiotic susceptibility phase of testing with or without a longer incubation period.
(§3) Preparation of Antimicrobial Susceptibility Testing Plates. Antimicrobial solutions are prepared at known concentrations. The specific antimicrobials and their concentrations are selected based on the pathogen of interest and the described antimicrobial resistance breakpoints for that specimen pathogen and antimicrobial combination. These antimicrobials have been selected based on those commonly utilized by healthcare providers in routine clinical care for the specific type of suspected infection. The number and types of antimicrobials utilized can be customized based on the infection source, pathogen detected, patient-specific factors such as allergies or other health conditions (e.g., chronic kidney disease or concurrent medication use), or healthcare provider preferences such as antimicrobial availability or cost.
The antimicrobial solutions are prepared in liquid culture media (such as Muller Hinton Broth) to achieve the desired antimicrobial concentration and are then stored at −80° C. until use. For a given specimen, each antimicrobial is tested at a single or multiple antimicrobial concentration(s) which is its established breakpoints for sensitivity. The antimicrobial solutions are prepared and plated out for each specific pathogen. […] This allows for evaluation of pathogen load when no antimicrobial is present.
Specimen Exposure to Antimicrobial Agents. The 1 mL aliquot of the specimen 100 previously mixed with culture media and incubated is obtained. Using optical density measurements as a guide, the specimen 100 is diluted to 0.5 McFarland.
Antimicrobial exposure plates are typically placed into an incubator for 12-16 hours.
Nucleic Acid Amplification of Antimicrobial Agent Exposed Pathogens. The antimicrobial exposure plate is removed after the period of incubation. The specimen then undergoes a purification or lysis step. For example, the specimen may undergo a purification step (e.g., magnetic bead-based or other separation protocol to isolate genetic material). In another example, the specimen may undergo a cell lysis step. For example, buffer (e.g., lysis buffer) may be added and incubated in the thermal cycler for preparation for direct PCR. Next, the specimen may undergo a polymerase chain reaction (PCR) testing protocol, whereby a semi-quantitative PCR method is utilized. This may be completed either with or without a specific extraction protocol step. The pathogens can be individually targeted and detected, or a universal genetic sequence can be utilized to detect the antimicrobial susceptibility of the specimen as a whole.

Escherichia coli [2] = assay: Traditional culture-based antimicrobial susceptibility test; assay type: cell-based
Text: Table 3 illustrates the results of an example antimicrobial agent susceptibility test of the current application versus a traditional culture-based antimicrobial agent susceptibility test for multiple Escherichia coli isolates, in accordance with one or more embodiments of the disclosure. These specimens underwent extraction or DNA purification prior to PCR. As in Tables 1 and 2, the results of the test of the current application are similar to the results from the traditional test. […]
Table 8 illustrates the results of an example antimicrobial agent susceptibility test of the current application versus a traditional culture-based antimicrobial agent susceptibility test for a low level positive with <10,000 cells/mL in the original specimen. These specimens were tested with direct PCR (e.g., no extraction DNA purification step prior to PCR) after 16 hours of incubation. As in Tables 1, 2, 3, 5, and 7, the results of the test are similar to the traditional test. […]

P. aeruginosa [3] = assay: Molecular phenotypic antimicrobial susceptibility test with direct PCR (no extraction DNA purification step); assay type: cell-based, Pseudomonas aeruginosa
Description: as §1
as §2, with “preservative. Specimens 100 are subsequently divided into a first sample 104 and a second sample 108.” for “preservative.”
Preparation of the Specimens for Testing. The specimens 100 are put through a pathogen identification process using PCR technology (e.g., using the first sample 104). The process for pathogen isolation includes steps of harvesting the pathogen (e.g., via centrifugation), isolating pathogen DNA via a DNA isolation and/or purification kit, and performing PCR on the pathogen DNA via PCR components (e.g., primers, enzymes, buffers) as would be known to the skilled artisan. Simultaneously, an additional aliquot of the same specimen (e.g., the second sample 108) is placed with liquid culture media and incubated for 4-6 hours. This aliquot is used for antimicrobial susceptibility testing if indicated based on the pathogen detection results. After pathogen identification is completed and if more than 10,000 cells/mL of bacteria (e.g., eligible bacteria) are detected in the source specimen, the second sample 108 then enters the antimicrobial susceptibility phase of testing. Specimens 100 with lower pathogen loads could also be utilized in the antibiotic susceptibility phase of testing with or without a longer incubation period.
as §3
The antimicrobial solutions are prepared in liquid culture media (such as Muller Hinton Broth) to achieve the desired antimicrobial concentration and are then stored at −80° C. until use. For a given specimen, each antimicrobial is tested at a single or multiple antimicrobial concentration(s) which is its established breakpoints for sensitivity. The antimicrobial solutions are prepared and plated out for each specific pathogen. This allows ease of use on the day of testing after defrosting the plate 112. Table 1, which illustrates the results of molecular phenotypic antimicrobial susceptibility testing when more than one organism is present in the source specimen, provides an example of an antimicrobial plate 112 prepared for this purpose. Of note, control wells containing only culture media are present on all plates 112. This allows for evaluation of pathogen load when no antimicrobial is present.
Specimen Exposure to Antimicrobial Agents. The 1 mL aliquot of the specimen 100 previously mixed with culture media and incubated is obtained. Using optical density measurements as a guide, the specimen 100 is diluted to 0.5 McFarland. […]

P. aeruginosa [4] = assay: Traditional culture-based antimicrobial susceptibility test; assay type: cell-based, Pseudomonas aeruginosa; settings: P. aeruginosa isolate MRSN1938
Description: Table 5 illustrates the results of an example antimicrobial agent susceptibility test of the current application versus a traditional culture-based antimicrobial agent susceptibility test for multiple specimens with different pathogens, in accordance with one or more embodiments of the disclosure. These specimens were tested with direct PCR (e.g., no extraction DNA purification step prior to PCR). As in Tables 1, 2, and 3, the results of the test of the current application are similar to the results from the traditional test.
Result Reporting to Healthcare Providers. The results from the antimicrobial exposure are reported to the ordering healthcare provider. This information can be utilized by the healthcare provider when selecting an antimicrobial regimen for their individual patient based on these individual specimen results and patient specific factors. […] The current standard of care for antimicrobial susceptibility testing involves the growth, isolation, and exposure of pathogens to antimicrobials. This traditional culture and sensitivity process can take multiple days to obtain results, limiting the ability of healthcare providers to receive timely results to make actionable changes in patient care or management. Healthcare providers desire a method to obtain antimicrobial susceptibility results with quicker turn-around-time. This application discloses a molecular-based phenotypic antimicrobial susceptibility method which involves pathogen exposure to a panel of antimicrobial agents at their specified minimum inhibitory concentration breakpoints for sensitivity. This method allows for more timely antimicrobial susceptibility results.

Compound: CC(C)(O/N=C(\C(=O)N[C@@H]1C(=O)N2C(C(=O)[O-])=C(C[n+]3ccccc3)CS[C@H]12)c1csc(N)n1)C(=O)O [Ceftazidime]
- Ct at Sensitive Breakpoint (Escherichia coli [1]; E. coli isolate 1, Ct at control (average) 21.238): 25.605
- Molecular Antimicrobial Susceptibility Result (Escherichia coli [1]; E. coli isolate 1, at sensitive breakpoint): Sensitive (Antimicrobial wells with pathogen load detected below the control wells (typically >2 cycle thresholds later) may be reported as Sensitive)
- Ct at Sensitive Breakpoint (Escherichia coli [1]; E. coli isolate 2, Ct at control (average) 21.270): 22.508
- Molecular Antimicrobial Susceptibility Result (Escherichia coli [1]; E. coli isolate 2, at sensitive breakpoint): Sensitive (Antimicrobial wells with pathogen load detected below the control wells (typically >2 cycle thresholds later) may be reported as Sensitive)
- Ct at Sensitive Breakpoint (Escherichia coli [1]; E. coli isolate 3, Ct at control (average) 22.0995): 22.583
- Molecular Antimicrobial Susceptibility Result (Escherichia coli [1]; E. coli isolate 3, at sensitive breakpoint): Resistant
- Traditional Culture Result (Escherichia coli [2]; E. coli isolate 1 (Table 3)): Sensitive
- Traditional Culture Result (Escherichia coli [2]; E. coli isolate 2 (Table 3)): Sensitive
- Traditional Culture Result (Escherichia coli [2]; E. coli isolate 3 (Table 3)): Sensitive
- Ct at Sensitive Breakpoint (P. aeruginosa [3]; P. aeruginosa isolate MRSN1938, Ct at control (average) 12.031): 24.596
- Molecular Antimicrobial Susceptibility Result (P. aeruginosa [3]; P. aeruginosa isolate MRSN1938, at sensitive breakpoint): Sensitive (Antimicrobial wells with pathogen load detected below the control wells (typically >2 cycle thresholds later) may be reported as Sensitive)
- Traditional Culture Result (P. aeruginosa [4]): Sensitive
